Test results published in ChEMBL document CHEMBL1201862, “PubChem BioAssay data set” (2004).
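Cultured in 96-well plates, cells were exposed to test compound for 48 hours across five concentrations. GI50: concentration for 50% inhibition of growth.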 Calls of active or inactive are those of the source. No stated cut-off is given here; in the data, active = GI50 up to about 1.1 µM and inactive = higher.

What was measured:
Test in all cases: growth of human tumour cells (NCI), 48 h
[1] = system: HL-60
[2] = system: MCF7
[3] = system: HOP-62
[4] = system: SF-268
[5] = system: MDA-N
[6] = system: SK-MEL-2
[7] = system: NCI-H522
[8] = system: K562
[9] = system: SK-MEL-5
[10] = system: A549
[11] = system: LOX IMVI
[12] = system: M14
[13] = system: MOLT-4
[14] = system: SR
[15] = system: COLO 205
[16] = system: SK-OV-3
[17] = system: NCI-H23
[18] = system: HOP-92
[19] = system: UO-31
[20] = system: UACC-62
[21] = system: SW-620
[22] = system: UACC-257
[23] = system: IGROV-1
[24] = system: CCRF-CEM
[25] = system: NCI/ADR-RES
[26] = system: SK-MEL-28
[27] = system: NCI-H460
[28] = system: SNB-75
[29] = system: SF-295
[30] = system: PC-3
[31] = system: RXF 393
[32] = system: HT-29
[33] = system: SNB-19
[34] = system: HCT-15
[35] = system: KM12
[36] = system: OVCAR-3
[37] = system: RPMI-8226
[38] = system: OVCAR-8
[39] = system: T47D
[40] = system: SF-539
[41] = system: SN12C
[42] = system: BT-549
[43] = system: U-251
[44] = system: OVCAR-4
[45] = system: EKVX
[46] = system: 786-0
[47] = system: NCI-H226
[48] = system: A498
[49] = system: HCC 2998
[50] = system: OVCAR-5
[51] = system: MDA-MB-435
[52] = system: ACHN
[53] = system: MDA-MB-231
[54] = system: Malme-3M
[55] = system: CAKI-1
[56] = system: HCT-116
[57] = system: TK-10
[58] = system: Hs-578T
[59] = system: DU-145

CCOC(=O)C#Cc1ccc(C#CC(=O)OCC)cc1
GI50 [1]: 2.74 µM (inactive)
GI50 [2]: 1.54 µM (inactive)
GI50 [3]: 3.81 µM (inactive)
GI50 [4]: 3.88 µM (inactive)
GI50 [5]: 1.2 µM (inactive)
GI50 [6]: 0.421 µM (active)
GI50 [7]: 2.9 µM (inactive)
GI50 [8]: 2 µM (inactive)
GI50 [9]: 2.89 µM (inactive)
GI50 [10]: 3.75 µM (inactive)
GI50 [11]: 3.03 µM (inactive)
GI50 [12]: 2.12 µM (inactive)
GI50 [13]: 1.02 µM (active)
GI50 [14]: 0.604 µM (active)
GI50 [15]: 6.21 µM (inactive)
GI50 [16]: 9.84 µM (inactive)
GI50 [17]: 3.69 µM (inactive)
GI50 [18]: 5.69 µM (inactive)
GI50 [19]: 3.43 µM (inactive)
GI50 [20]: 3.37 µM (inactive)
GI50 [21]: 3.15 µM (inactive)
GI50 [22]: 22.1 µM (inactive)
GI50 [23]: 1.72 µM (inactive)
GI50 [24]: 1.66 µM (inactive)
GI50 [25]: 6.43 µM (inactive)
GI50 [26]: 2.84 µM (inactive)
GI50 [27]: 5.13 µM (inactive)
GI50 [28]: 0.0381 µM (active)
GI50 [29]: 13.5 µM (inactive)
GI50 [30]: 6.85 µM (inactive)
GI50 [31]: 2.62 µM (inactive)
GI50 [32]: 1.99 µM (inactive)
GI50 [33]: 5.02 µM (inactive)
GI50 [34]: 1.81 µM
GI50 [35]: 2.76 µM (inactive)
GI50 [36]: 2.77 µM (inactive)
GI50 [37]: 2.56 µM (inactive)
GI50 [38]: 3.49 µM (inactive)
GI50 [39]: > 21.2 µM (inactive)
GI50 [40]: 10.6 µM (inactive)
GI50 [41]: 3.21 µM (inactive)
GI50 [42]: 3.95 µM (inactive)
GI50 [43]: 2.51 µM (inactive)
GI50 [44]: 2.83 µM (inactive)
GI50 [45]: 7.74 µM (inactive)
GI50 [46]: 4.35 µM (inactive)
GI50 [47]: 3.3 µM (inactive)
GI50 [48]: 14.2 µM (inactive)
GI50 [49]: 6.46 µM (inactive)
GI50 [50]: 11.8 µM (inactive)
GI50 [51]: 0.818 µM (active)
GI50 [52]: 3.45 µM (inactive)
GI50 [53]: 5.11 µM (inactive)
GI50 [54]: 3.35 µM (inactive)
GI50 [55]: 2.35 µM (inactive)
GI50 [56]: 1.7 µM (inactive)
GI50 [57]: 2.9 µM (inactive)
GI50 [58]: 3.15 µM (inactive)

COc1ccc(-c2cc(=O)c3c(OC)c(OC)c(OC)c(OC)c3o2)cc1OC [NOBILETIN]
GI50 [1]: 17.3 µM (inactive)
GI50 [2]: 4.86 µM (inactive)
GI50 [3]: 44.7 µM (inactive)
GI50 [4]: 66.8 µM (inactive)
GI50 [5]: 49.9 µM (inactive)
GI50 [6]: 49.4 µM (inactive)
GI50 [7]: 28.6 µM (inactive)
GI50 [8]: 36.3 µM (inactive)
GI50 [9]: 18.6 µM (inactive)
GI50 [10]: 42.8 µM (inactive)
GI50 [11]: 30.1 µM (inactive)
GI50 [12]: 55.8 µM (inactive)
GI50 [13]: 25.2 µM (inactive)
GI50 [14]: 59.7 µM (inactive)
GI50 [15]: 35 µM (inactive)
GI50 [16]: 61.7 µM (inactive)
GI50 [17]: 47.1 µM (inactive)
GI50 [18]: 18.3 µM (inactive)
GI50 [19]: 24.7 µM (inactive)
GI50 [20]: 25.6 µM (inactive)
GI50 [21]: 47.5 µM (inactive)
GI50 [22]: 33.5 µM (inactive)
GI50 [23]: 49.2 µM (inactive)
GI50 [24]: 65.6 µM (inactive)
GI50 [25]: 20.3 µM (inactive)
GI50 [59]: 61.1 µM (inactive)
GI50 [26]: > 100 µM (inactive)
GI50 [27]: 52.8 µM (inactive)
GI50 [28]: 30.5 µM (inactive)
GI50 [29]: 32.5 µM (inactive)
GI50 [31]: 61.5 µM (inactive)
GI50 [32]: 32.1 µM (inactive)
GI50 [33]: > 100 µM (inactive)
GI50 [34]: 26.5 µM
GI50 [36]: 24.7 µM (inactive)
GI50 [37]: 39.8 µM (inactive)
GI50 [38]: 29.6 µM (inactive)
GI50 [39]: 19.5 µM (inactive)
GI50 [40]: > 100 µM (inactive)
GI50 [41]: 41.5 µM (inactive)
GI50 [42]: 62.7 µM (inactive)
GI50 [43]: 71 µM (inactive)
GI50 [44]: 28 µM (inactive)
GI50 [45]: 56.2 µM (inactive)
GI50 [46]: 49.9 µM (inactive)
GI50 [47]: 91.6 µM (inactive)
GI50 [48]: 25.2 µM (inactive)
GI50 [49]: 32.7 µM (inactive)
GI50 [50]: > 100 µM (inactive)
GI50 [51]: 45.1 µM (inactive)
GI50 [52]: 37.3 µM (inactive)
GI50 [53]: 34.5 µM (inactive)
GI50 [54]: > 100 µM (inactive)
GI50 [55]: 29.4 µM (inactive)
GI50 [56]: 72.4 µM (inactive)
GI50 [57]: 50.1 µM (inactive)
GI50 [58]: 21.1 µM (inactive)
